Here are results for 12 compounds from article PMC7765098, “Non-Steroidal Anti-Inflammatory Drugs Increase Cisplatin, Paclitaxel, and Doxorubicin Efficacy against Human Cervix Cancer Cells” (Pharmaceuticals, 2020).

Where two headings read alike, the source gives them in different places.

Assay [1] has as its system 3T3 fibroblasts. The assay is described as follows: Bidimensional 3T3 fibroblast proliferation (MTT assay). The assay is classed as cell-based, mouse. As to conditions: read-out: IC50, bidimensional 3T3 cell growth. The procedure:
(§1) For cellular proliferation with and without drugs, the cell lines (20 × 10^3 cells/well) were grown as bidimensional in 96-well plates containing Dulbecco’s Modified Eagle’s Medium (DMEM) (Sigma-Aldrich) for 24 h.
(§2) The combination effect of NSAIDs and chemotherapy drugs on proliferation was also analyzed by determining the resistance index ratio (RI) and the combination index (CI) value.

Assay [2] deals with MCF-10A mammary gland cells. The assay is described as follows: Bidimensional MCF-10A cell proliferation (MTT assay). The assay is classed as cell-based, human. As to conditions: read-out: IC50, bidimensional MCF-10A cell growth. The procedure:
as §1

Assay [3] deals with HeLa cells. The assay is described as follows: Bidimensional HeLa cell proliferation (MTT assay), drugs alone or combined. The class given is cell-based, human. The note with it: for IC50: read-out: IC50, bidimensional HeLa cell growth; for decrement of the IC50 value: bidimensional HeLa, presence of either NSAID (celecoxib or DMC) vs monotherapy. The procedure: as §1, §2
Assay [4] has as its system HeLa MCTS. The assay is described as follows: HeLa multi-cellular tumor spheroid (MCTS) growth, preventive and curative protocols. The assay is classed as cell-based, human. The method, then: HeLa, SiHa, and U373 (1 × 10^5 cells/mL) were seeded onto 2% (w/v) agarose-coated culture dishes in 5 mL DMEM. […] The growth of each MCTS was analyzed by fitting data to a logistic function for exponential growth using the Origin 8 software (Northampton MA, USA).
as §2

Assay [5] has as its system HFF1 fibroblasts. The assay is described as follows: Bidimensional HFF1 fibroblast proliferation (MTT assay). The class given is cell-based. As to conditions: read-out: IC50, bidimensional HFF1 cell growth. The procedure:
as §1
In general terms: Tetrazolium assays rely on reduction of a dye to a coloured formazan, in cell work by metabolically active cells.

Assay [6] relates to OxPhos flux in HeLa cells. The assay is described as follows: OxPhos flux (oligomycin-sensitive oxygen consumption) in HeLa cells. The assay is classed as cell-based, human. The note with it: for OxPhos flux decrease: 5 µM celecoxib, 2 µM cisplatin, 15 µM paclitaxel, 24 h exposure; for OxPhos (mitochondrial flux) decrease, summary in Discussion: celecoxib or DMC alone, or combined with chemotherapy drugs.
Protocol: For total oxygen consumption and OxPhos fluxes, HeLa, SiHa, or U373 cells or 3T3 fibroblasts (1 mg protein/mL), cultured for 24 h with the indicated drugs, were harvested and further incubated at 37 °C in air-saturated KR buffer and under constant agitation.

The subject of assay [7] is OxPhos flux in HeLa cells. The note with it: vs. non-treated cells; cited from earlier work.
Assay [8] has as its system HeLa cells. The assay is described as follows: Cell invasiveness assay (Boyden chamber), HeLa. The class given is cell-based, human. The note with it: celecoxib (5 µM), paclitaxel (15 µM), cisplatin (2 µM), alone or combined, 24 h. The procedure:
The lower compartment was filled with serum-free DMEM. After 24 h at 37 °C, the invasive cells found in the lower compartment were loaded with 60 nM calcein AM (acetomethylester) for 60 min.

In assay [9] the test system is glycolysis flux in HeLa cells. The assay is described as follows: Glycolytic flux (lactate production) in HeLa cells. As to conditions: 5 µM celecoxib, 2 µM cisplatin, 15 µM paclitaxel, alone; 24 h exposure. The assay is classed as cell-based, human. The procedure: Glycolysis was started by adding 5 mM glucose (Sigma-Aldrich). Cellular samples were collected after 0 and 10 min of incubation, swiftly mixed with 30% (w/v) of cold perchloric acid, and centrifuged at 3500 rpm for 5 min. Supernatants were neutralized with 1N KOH/100 mM Tris. Cells were also incubated with 2-deoxyglucose (2-DG, 20 mM) (Sigma-Aldrich) to prevent lactate production by glycogen degradation. Lactate production was determined by the lactate dehydrogenase (Roche, Mannheim, Germany) coupled assay registering the NADH formation at 340 nm.

For assay [10], the system named is COX-2. The note with it: at 100 µM; cited from earlier work.
[11] abbreviates: drug alone, 24 h of drug exposure, non-cancer.
[12] abbreviates: drug alone, 24 h of drug exposure.
The mark [13] stands for this setting: drug alone, added at the beginning of culture, determined at day 20 of growth, read-out: IC50, tridimensional HeLa MCTS, Preventive.
Setting [14] is: drug alone, added once spheroids were formed (day 10), determined at day 20 of growth, read-out: IC50, tridimensional HeLa MCTS, Curative.
Where [15] appears, read: Homo sapiens, MCF-10A, drug alone, 24 h of drug exposure, non-cancer.
The mark [16] stands for this setting: Homo sapiens, HeLa, drug alone, 24 h of drug exposure.
[17] abbreviates: Homo sapiens, HeLa, 480 h, read-out: IC50, tridimensional HeLa MCTS, Preventive.
The mark [18] stands for this setting: Homo sapiens, HeLa, read-out: IC50, tridimensional HeLa MCTS, Curative.
Setting [19] is: Homo sapiens, HFF-1, drug alone, 24 h of drug exposure, non-cancer.
[20] abbreviates: Mus musculus, NIH3T3, drug alone, 24 h of drug exposure, non-cancer.
The mark [21] stands for this setting: Homo sapiens, HeLa, 480 h, drug alone, added at the beginning of culture, determined at day 20 of growth, read-out: IC50, tridimensional HeLa MCTS, Preventive.
Where [22] appears, read: Homo sapiens, HeLa, drug alone, added once spheroids were formed (day 10), determined at day 20 of growth, read-out: IC50, tridimensional HeLa MCTS, Curative.

What is called IC50 is the concentration that inhibits the measured activity by half. Turning to `N.N.O=C([O-])C1(C(=O)[O-])CCC1.[Pt+2]` [Carboplatin, carboplatin], the IC50 in assay [1] (setting [11]) is above 5000 µM; in assay [2] (setting [11]) it was above 1000 µM; in assay [3] (setting [12]), 1000 ± 400 µM; in assay [4] (setting [13]) it was 0.165 ± 0.028 µM; in assay [4] (setting [14]), 287 ± 43 µM. Further, the “IC50, bidimensional HeLa cell growth” value in [3] (setting [12]) was “in the mM range”.
For the compound `Cc1ccc(-c2cc(C(F)(F)F)nn2-c2ccc(S(N)(=O)=O)cc2)cc1` [Celecoxib, celecoxib], the IC50 is 96 ± 13 µM in [5] (Homo sapiens, HFF-1, 24 h); 119 ± 7 µM in [1] (Mus musculus, NIH3T3, 24 h); above 100 µM in assay [2] (setting [15]); 55 ± 9 µM in [3] (setting [16]); 0.001 ± 0.0003 µM in assay [4] (setting [17]); 7.5 ± 2 µM in assay [4] (setting [18]). Also, the OxPhos flux decrease in [6] (alone or in combination) was 36–50%. In addition, in assay [6], the “OxPhos (mitochondrial flux) decrease, summary in Discussion” value is on record as 50–60%. Besides, the “OxPhos and mitochondrial membrane potential affected” value in [7] is listed as 50–80%. The “decrease of invasiveness potential” value in assay [8] was “did not alter”. In assay [9], the glycolysis decrease is 36–50%. Besides, in assay [4] (HeLa MCTS, both preventive and curative protocols), the “decrease of chemotherapy drug IC50 values” is listed as above 70%.
Take `N.N.[Cl][Pt][Cl]` [Cisplatin, cisplatin]: the IC50 in assay [5] (setting [11]) was determined as 59 ± 26 µM; in assay [2] (setting [11]), 82 ± 4 µM; in assay [3] (setting [12]) it was 15 ± 3 µM; in assay [4] (setting [13]), 0.05 ± 0.017 µM; in [4] (setting [14]) it was 270 ± 20 µM. Moreover, the OxPhos flux decrease entry in assay [6] (alone or in combination) is given as “did not significantly affect”. Also, the “decrement of the IC50 value” in assay [3] is recorded as 38–66%. The “decrease of invasiveness potential” value in assay [8] is on record as “did not alter”. Moreover, the glycolysis decrease in assay [9] is 40–60%.
For `O=P1(N(CCCl)CCCl)NCCCO1` (stereo not shown) [Cyclophosphamide, cyclophosphamide], the IC50 in assay [1] (Mus musculus, NIH3T3, 24 h) was above 1000 µM; in [2] (Homo sapiens, MCF-10A, 24 h), 102 ± 35 µM; in assay [3] (Homo sapiens, HeLa, 24 h), 16 ± 3 µM; in [4] (setting [17]) it was 0.136 ± 0.087 µM; in [4] (setting [18]), 315 ± 30 µM.
A word on the inhibition: it is the share of the control response that was lost under treatment. Regarding `Cc1ccc(C)c(-c2cc(C(F)(F)F)nn2-c2ccc(S(N)(=O)=O)cc2)c1` [DMC, 2,5-dimethylcelecoxib], the IC50 in assay [5] (setting [19]) was 44 ± 11 µM; in assay [1] (setting [20]), 69 ± 8.5 µM; in [2] (setting [15]) it was above 100 µM; in assay [3] (setting [16]), 48 ± 2 µM; in assay [4] (setting [21]), 0.01 ± 0.002 µM; in assay [4] (setting [22]), 32 ± 10 µM. For the same compound, in [6] (Homo sapiens, HeLa, DMC (15 µM), paclitaxel (20 µM), cisplatin (5 µM), alone or in combination, 24 h, n=1 (Figure S3)), the inhibition at 15 µM is 60%. Also, in [6], the “OxPhos (mitochondrial flux) decrease, summary in Discussion” value was 50–60%. Further, the COX-2 activity blocked in assay [10] is 15%. The “lowering of cisplatin and paclitaxel IC50 values” in assay [4] (HeLa MCTS curative protocol) is 45–73%; in assay [4] (HeLa MCTS preventive protocol) it was 52–55%.
As for `COc1cccc2c1C(=O)c1c(O)c3c(c(O)c1C2=O)C[C@@](O)(C(=O)CO)C[C@@H]3O[C@H]1C[C@H](N)[C@H](O)[C@H](C)O1` [Doxorubicin, doxorubicin], the IC50 amounted to 65 ± 19 µM in assay [5] (setting [19]); 51 ± 18 µM in assay [1] (setting [20]); 82 ± 25 µM in [2] (setting [15]); 26 ± 6 µM in assay [3] (setting [16]); 0.048 ± 0.007 µM in [4] (setting [21]); 86 ± 5 µM in assay [4] (setting [22]). Further, the “decrement of the IC50 value” in assay [3] is 38–66%.
On to `Nc1ccn([C@@H]2O[C@H](CO)[C@@H](O)C2(F)F)c(=O)n1` [Gemcitabine, gemcitabine], for which the IC50 in assay [1] (setting [20]) was above 2000 µM; in assay [2] (setting [15]), above 1000 µM; in assay [3] (setting [16]), 30 ± 5 µM; in assay [4] (setting [21]), 0.065 ± 0.017 µM; in [4] (setting [22]), 128 ± 20 µM.
On to `CC(=O)O[C@H]1C(=O)[C@@]2(C)[C@H]([C@H](OC(=O)c3ccccc3)[C@]3(O)C[C@H](OC(=O)[C@H](O)[C@@H](NC(=O)c4ccccc4)c4ccccc4)C(C)=C1C3(C)C)[C@]1(OC(C)=O)CO[C@@H]1C[C@@H]2O` [Paclitaxel], for which the IC50 came out at 68 ± 30 µM in assay [5] (setting [19]); 80 ± 12 µM in [1] (setting [20]); 100 ± 18 µM in assay [2] (setting [15]); 21 ± 4 µM in assay [3] (setting [16]); 0.016 ± 0.005 µM in [4] (setting [21]); 26.5 ± 0.1 µM in assay [4] (setting [22]). For the same compound, in assay [6] (alone or in combination), the OxPhos flux decrease result is “did not significantly affect”. Besides, the “decrease of invasiveness potential” value in [8] is listed as “did not alter”. Also, in assay [9], the glycolysis decrease is on record as 40–60%.
Regarding `Cc1c(C)c2c(c(C)c1OCC(=O)O)CC[C@@](C)(CCC[C@H](C)CCC[C@H](C)CCCC(C)C)O2` [α-TEA, α-tocopherol ether linked acetic acid analog], the IC50 in [3] (setting [16]) turned out to be 4.7 ± 0.7 µM; in assay [4] (setting [21]) it was 0.025 ± 0.006 µM; in [4] (setting [22]), 30 ± 2 µM.
Turning to `Cc1c(C)c2c(c(C)c1OC(=O)CCC(=O)O)CC[C@@](C)(CCC[C@H](C)CCC[C@H](C)CCCC(C)C)O2` [α-TOS, α-tocopheryl succinate], the IC50 came to 1.2 ± 0.46 µM in assay [3] (setting [12]), 0.01 ± 0.004 µM in [4] (setting [13]) and 50 ± 11 µM in [4] (setting [14]).
Regarding Casiopeina II-gly [CasII-gly], the IC50 worked out at 9 ± 2 µM in [1] (setting [11]); 17 ± 3 µM in assay [2] (setting [11]); 1.5 ± 0.9 µM in assay [3] (setting [12]); 0.03 ± 0.0075 µM in [4] (setting [13]); 106 ± 2 µM in [4] (setting [14]). Further, the “decrease of IC50 values of cisplatin, paclitaxel, and doxorubicin” value was 19–54% in [3] (bidimensional HeLa cultures, co-added drug vs monotherapy) and 62–96% in [4] (tridimensional HeLa cultures). Also, the “increase of cisplatin toxicity (decrease of cisplatin IC50)” value in assay [4] (HeLa MCTS) is reported as 84–96%.
Consider “methoxy-tocopheryl oxyacetic acid [M-TEA]”, for which the IC50 in assay [3] (setting [12]) stood at 1.2 ± 0.48 µM.
